Laboratory results as given in patent US9925139B2, “Pharmaceutical compositions for acute glucocorticoid therapy” (ACUCORT AB, priority 2004, dated 2018).

Columns and labels:
[1] = cited from earlier work; for Equivalent amount: dose equivalent for glucocorticoid therapy; for Hydrocortisone equivalent (1 mg of the glucocorticoid corresponds to the listed amount in mg of hydrocortisone): per 1 mg of the glucocorticoid
[2] = In vivo plasma cortisol profile in healthy volunteers with suppressed endogenous cortisol, oral mucosal administration; parameters: species or system human
Experimental: The in vivo experiments reported herein were carried out on healthy volunteers. At 6 pm and 11 pm the day before administration of the test composition, the endogenous cortisol secretion was suppressed by oral administration of 2 mg of betamethasone. The test composition was administered to healthy volunteers. The volunteers were in fasted state and were not allowed to take any food until noon. In the case a tablet is administered, it is ingested together with 200 ml of water. The test composition is administered between 8 am and 10 am on the day following the suppression of endogenous glucocorticoid secretion.
In vivo plasma profiles in humans, N=1 per composition
Dexamethasone suppression test, fasting state, otherwise as described in the paragraph denoted “Method”.
Two films were prepared essentially similar to Example 13—composition A. Film A contains 10 mg of hydrocortisone and film B contains 11.2 mg of hydrocortisone acetate.
The hydrocortisone compositions were tested in two human subjects after labial administration. The subjects had their endogenous glucocorticoid secretion suppressed by synthetic glucocorticoids. The plasma concentration of cortisol was monitored during 360 min after the labial administration, and the serum concentration time profiles from these two subjects are shown in FIGS. 6 and 7.
The compositions were tested after oral administration to two human subjects (see FIG. 8).

Row | SMILES | Equivalent amount [1] [mg] | Hydrocortisone equivalent (1 mg of the glucocorticoid corresponds to the listed amount in mg of hydrocortisone) [1] [mg] | Time at which first measured plasma concentration was attained ([2]; Example 13 films, 10 mg hydrocortisone, labial administration, two human subjects) [min] | Rate and extent of mucosal uptake ([2]; Example 13 films, 10 mg hydrocortisone, labial administration, two human subjects, FIGS. 6 and 7) | Suitability for an immediate release composition (in vivo plasma profiles) ([2]; Example 11 thin-layer films, humans, N=1 per composition, fasting state, FIGS. 1-3)
1 | C[C@@H]1C[C@H]2[C@@H]3C[C@H](F)C4=CC(=O)C=C[C@]4(C)[C@H]3[C@@H](O)C[C@]2(C)[C@@]1(O)C(=O)CO [Paramethasone] | 2 | 10 |  |  | 
2 | C[C@]12C=CC(=O)C=C1CC[C@@H]1[C@@H]2[C@@H](O)C[C@@]2(C)[C@H]1CC[C@]2(O)C(=O)CO [Prednisolone] | 5 | 4 |  |  | 
3 | C[C@]12C=CC(=O)C=C1CC[C@H]1[C@@H]3C[C@@H](O)[C@](O)(C(=O)CO)[C@@]3(C)C[C@H](O)[C@@]12F [Triamcinolone] | 4 | 5 |  |  | 
4 | CC(=O)OCC(=O)[C@@]1(O)CC[C@H]2[C@@H]3CCC4=CC(=O)CC[C@]4(C)[C@H]3C(=O)C[C@@]21C [Cortisone acetate] | 25 | 0.8 |  |  | 
5 | C[C@]12CCC(=O)C=C1CC[C@@H]1[C@@H]2[C@@H](O)C[C@@]2(C)[C@H]1CC[C@]2(O)C(=O)CO [Hydrocortisone] | 20 | 1 | 10 to 15 | high | 
6 | CC(=O)OCC(=O)[C@@]1(O)CC[C@H]2[C@@H]3CCC4=CC(=O)CC[C@]4(C)[C@H]3[C@@H](O)C[C@@]21C [hydrocortisone acetate] |  |  |  |  | does not seem to be suitable for an immediate release composition
